Holding throughout (assay type): cell-based
In one test the test system is Serratia marcescens. Put plainly: Serial dilution-tube method, MIC. The settings on record: brain heart infusion broth; for MIC: Serratia marcescens, read-out: Minimum Inhibitory Concentration.
For test [1], the system named is Staphylococcus aureus. Put plainly: Serial dilution-tube method, MIC. The settings on record: for MIC: Staphylococcus aureus.
The test system of another test is Vibrio percolans. Put plainly: Standard disc-plate method, zone of inhibition. The settings on record: Comamonas terrigena, 25 microgram discs. An excerpt:
(§1) The utility of the various compounds as intermediates to other compounds of the present invention will be evident from the preceding discussion. The antibacterial activity of these compounds, reflecting their utility in the control of susceptible bacterial infections in man and animals, as animal feed additives for promotion of growth, or as preservatives of materials biodegraded by susceptible microorganisms, is best measured by the standard disc-plate method routinely employed in clinical laboratories for determining the sensitivity of microorganisms to antimicrobial substances. Sensitivity discs are prepared by dipping a standard 6.25 mm. paper disc into a solution of the compound to be tested (conc. 1 mg./ml.) in a volatile solvent (e.g. methylene chloride) and the disc dried, producing discs containing approximately 25 microg. of the compound. The discs are placed on the surface of agar growth media seeded with the test microorganism, previously plated into Petri dishes. The plates are incubated overnight at 35°-37° C. Activity of the test compound is reflected by a zone of inhibition of bacterial growth around the test disc. The diameter of this zone provides a quantitative measure of the activity of the antibacterial substance. The activity of various compounds of the present invention is summarized in Table I. For comparison, results obtained with 10 microg. discs of ampicillin and penicillin G are included as positive controls.

The test system of test [2] is Staphylococcus aureus (Antibiotic Resistant). Put plainly: Standard disc-plate method, zone of inhibition. The settings on record: Staphylococcus aureus; 25 microgram discs; antibiotic resistant.
Description: as §1

In test [3] the test system is Escherichia coli. The test is described as follows: Standard disc-plate method, zone of inhibition. The settings on record: 25 microgram discs; for zone of inhibition at 25 µg/disc: Escherichia coli.
Description: as §1

Test [4] has as its system Staphylococcus aureus. Put plainly: Standard disc-plate method, zone of inhibition. The settings on record: 25 microgram discs; for zone of inhibition at 25 µg/disc: Staphylococcus aureus.
Description: as §1

The test system of a further test is Bacillus subtilis. Put plainly: Standard disc-plate method, zone of inhibition. The settings on record: 25 microgram discs; for zone of inhibition at 25 µg/disc: Bacillus subtilis.
Description: as §1

The subject of a further test is Citrobacter diversus. Put plainly: Serial dilution-tube method, MIC. The note with it: Citrobacter koseri; brain heart infusion broth; read-out: Minimum Inhibitory Concentration.
A further test deals with Proteus morgani. Put plainly: Serial dilution-tube method, MIC. The note with it: brain heart infusion broth; for MIC: read-out: Minimum Inhibitory Concentration.
Test [5] deals with Escherichia coli. Put plainly: Serial dilution-tube method, MIC. Further details: key to synergistic effect with ampicillin: Shows a synergistic effect when tested 1:1 with ampicillin. The note with it: for MIC: Escherichia coli, read-out: Minimum Inhibitory Concentration.
The test system of a further test is Klebsiella pneumoniae. The test is described as follows: Serial dilution-tube method, MIC. The settings on record: brain heart infusion broth; for MIC: Klebsiella pneumoniae, read-out: Minimum Inhibitory Concentration.
The subject of a further test is Pseudomonas aeruginosa. The test is described as follows: Serial dilution-tube method, MIC. The settings on record: brain heart infusion broth; for MIC: Pseudomonas aeruginosa, read-out: Minimum Inhibitory Concentration.
For test [6], the system named is Escherichia coli (Antibiotic Resistant). Put plainly: Serial dilution-tube method, MIC. Details: key to synergistic effect with cefazolin: b: Shows a synergistic effect when tested 1:1 with cefazolin. The note with it: for MIC: Escherichia coli, read-out: Minimum Inhibitory Concentration.
In another test the test system is Enterobacter cloacae. The test is described as follows: Serial dilution-tube method, MIC. The note with it: brain heart infusion broth; for MIC: Enterobacter cloacae, read-out: Minimum Inhibitory Concentration.
For test [7], the system named is Staphylococcus aureus (Antibiotic Resistant). The test is described as follows: Serial dilution-tube method, MIC. Details: key to synergistic effect with ampicillin: Shows a synergistic effect when tested 1:1 with ampicillin. The settings on record: for MIC: Staphylococcus aureus, read-out: Minimum Inhibitory Concentration.
For another test, the system named is Micrococcus luteus. Put plainly: Standard disc-plate method, zone of inhibition. The settings on record: 25 microgram discs.
Description: as §1

Where [8] appears, read: brain heart infusion broth, read-out: Minimum Inhibitory Concentration.

≈ marks a conversion by molar mass, not a printed value. Like-named read-outs stand apart in the source and are kept apart here. Bounds are passed on as bounds.

`CCN1CCN(C(=O)N[C@@H](C(=O)NC2C(=O)N3C(C(=O)OCOC(=O)C(C)(C)C)C(C)C(=O)C23)c2ccccc2)C(=O)C1=O` (stereo partly drawn) [EPA H POM CH3 O I, Pivaloyloxymethyl 2-Methyl-1-oxo-6-[2-phenyl-2-(4-ethyl-2,3-dioxopiperazine-1-carboxamido)acetamido]carbapenam-3-carboxylate]: the MIC in the test on Serratia marcescens was 100 µg/mL (≈ 163 µM); in the test with Staphylococcus aureus [1] (setting [8]), 100 µg/mL (≈ 163 µM); with Citrobacter diversus, 100 µg/mL (≈ 163 µM); in the test with Proteus morgani, 25 µg/mL (≈ 40.7 µM); in the test with Escherichia coli [5] (brain heart infusion broth), 100 µg/mL; in the test with Klebsiella pneumoniae, 100 µg/mL (≈ 163 µM). The MIC in the test on Pseudomonas aeruginosa was > 200 µg/mL; in [6] (brain heart infusion broth) it was > 200 µg/mL; with Enterobacter cloacae it was 200 µg/mL (≈ 326 µM); in test [7] (brain heart infusion broth), > 200 µg/mL. Besides, the zone of inhibition – broadly, the extent of the growth-free halo in a diffusion test – at 25 µg/disc in the test with Vibrio percolans stood at 21 mm; in test [2], 12 mm; with Escherichia coli [3] it was 12 mm; with Staphylococcus aureus [4] it was 12 mm; in the test with Bacillus subtilis it was 21 mm. For the same molecule, the “synergistic effect with ampicillin” value in the test on Escherichia coli [5] (tested 1:1 with ampicillin) is “a”.
On to `COC1(NC(=O)COc2ccccc2)C(=O)N2C(C(=O)OCOC(=O)C(C)(C)C)C(C)C(O)C21` (stereo not drawn) [PMA OMe POM CH3 H OH I, pivaloyloxymethyl 1-hydroxy-6-methoxy-2-methyl-6-(2-phenoxyacetamido)carbapenam-3-carboxylate], for which the MIC in the test with Serratia marcescens, with Staphylococcus aureus [1] (setting [8]), in the test with Citrobacter diversus, in the test on Proteus morgani, in the test on Escherichia coli [5] (brain heart infusion broth) and in the test on Klebsiella pneumoniae was > 200 µg/mL each time. Also, the MIC (in the test on Pseudomonas aeruginosa; in test [6] (brain heart infusion broth); in the test on Enterobacter cloacae; in [7] (brain heart infusion broth)) was > 200 µg/mL each time. In addition, the zone of inhibition at 25 µg/disc with Vibrio percolans was 0 mm; in test [2], 0 mm; in the test with Escherichia coli [3], 0 mm; in the test on Staphylococcus aureus [4] it was 23 mm; in the test with Bacillus subtilis, 11 mm.
For `Cc1onc(-c2ccccc2)c1C(=O)NC1C(=O)N2C(C(=O)OCOC(=O)C(C)(C)C)C(C)C(O)C12` (stereo not drawn) [MPI H POM CH3 H OH I, Pivaloyloxymethyl 1-Hydroxy-2-methyl-6-(5-methyl-3-phenylisoxazole-4-carboxamido)carbapenam-3-carboxylate], the MIC in the test with Serratia marcescens was > 200 µg/mL; in the test with Staphylococcus aureus [1] (setting [8]) it was 100 µg/mL (≈ 200 µM); with Citrobacter diversus it was > 200 µg/mL; with Proteus morgani, > 200 µg/mL; in the test on Escherichia coli [5] (brain heart infusion broth), > 200 µg/mL; in the test on Klebsiella pneumoniae, > 200 µg/mL. Also, the MIC in the test with Pseudomonas aeruginosa was > 200 µg/mL; in test [6] (brain heart infusion broth), > 200 µg/mL; in the test with Enterobacter cloacae it was > 200 µg/mL; in [7] (brain heart infusion broth), 100 µg/mL. Moreover, the zone of inhibition at 25 µg/disc in the test on Vibrio percolans stood at 13 mm; in [2], 14 mm; with Escherichia coli [3] it was 0 mm; in the test on Staphylococcus aureus [4], 15 mm; in the test on Bacillus subtilis, 16 mm.
With `CCN1CCN(C(=O)N[C@@H](C(=O)NC2C(=O)N3C(C(=O)O)C(C)C(O)C23)c2ccccc2)C(=O)C1=O` (stereo partly drawn) [EPA H H CH3 H OH I, Sodium 1-Hydroxy-2-methyl-6-[2-phenyl-2-(4-ethyl-2,3-dioxopiperazine-1-carboxamido)acetamido]carbapenam-3-carboxylate], the MIC with Serratia marcescens is > 200 µg/mL; in the test with Staphylococcus aureus [1] (setting [8]) it was 50 µg/mL; in the test on Citrobacter diversus, > 200 µg/mL; in the test on Proteus morgani, 50 µg/mL; in the test on Escherichia coli [5] (brain heart infusion broth), 100 µg/mL; in the test with Klebsiella pneumoniae, > 200 µg/mL. Besides, the MIC in the test on Pseudomonas aeruginosa is > 200 µg/mL; in test [6] (brain heart infusion broth) it was > 200 µg/mL; in the test on Enterobacter cloacae, 50 µg/mL; in [7] (brain heart infusion broth), 200 µg/mL. Besides, the zone of inhibition at 25 µg/disc with Vibrio percolans amounted to 25 mm; in [2] it was 9 mm; in the test on Escherichia coli [3] it was 16 mm; in the test with Staphylococcus aureus [4], 15 mm; with Bacillus subtilis, 16 mm.
`CC1C(O)C2CC(=O)N2C1C(=O)OCOC(=O)C(C)(C)C` (stereo not drawn) [H H POM CH3 H OH I, Pivaloyloxymethyl 1-Hydroxy-2-methylcarbapenam-3-carboxylate]: the MIC in the test on Serratia marcescens, in the test with Staphylococcus aureus [1] (setting [8]), with Citrobacter diversus, with Proteus morgani, in the test with Escherichia coli [5] (brain heart infusion broth) and in the test on Klebsiella pneumoniae was > 200 µg/mL throughout. The MIC (in the test on Pseudomonas aeruginosa; in [6] (brain heart infusion broth); in the test on Enterobacter cloacae; in test [7] (brain heart infusion broth)) was > 200 µg/mL in each case. Moreover, the zone of inhibition at 25 µg/disc (in test [2]; in the test on Staphylococcus aureus [4]; in the test on Bacillus subtilis) was 0 mm in each case.
For the molecule `CC1C(=O)C2CC(=O)N2C1C(=O)OCOC(=O)C(C)(C)C` (stereo not drawn) [H H POM CH3 O I, Pivaloyloxymethyl 2-Methyl-1-oxocarbapenam-3-carboxylate], the MIC with Serratia marcescens is > 200 µg/mL; with Staphylococcus aureus [1] (setting [8]), > 200 µg/mL; in the test on Staphylococcus aureus [1] (serial dilution tube test, read-out: minimum inhibitory concentration), > 200 µg/mL; in the test on Citrobacter diversus, > 200 µg/mL; in the test on Proteus morgani, > 200 µg/mL; with Escherichia coli [5] (brain heart infusion broth), > 200 µg/mL. Besides, the MIC (in the test on Klebsiella pneumoniae; with Pseudomonas aeruginosa; in test [6] (brain heart infusion broth); in the test with Enterobacter cloacae; in [7] (brain heart infusion broth)) was > 200 µg/mL in each case. For the same molecule, the zone of inhibition at 25 µg/disc in [2] was 0 mm; in the test on Staphylococcus aureus [4] it was 18 mm; with Bacillus subtilis, 18 mm. For the same molecule, the “synergistic effect with cefazolin” value in [6] (tested 1:1 with cefazolin) is reported as “b”. Also, in test [7] (tested 1:1 with ampicillin), the “synergistic effect with ampicillin” value is recorded as “a”.
`CC(=O)OC1C(C)C(C(=O)O)N2C(=O)CC12` (stereo not drawn) [H H H CH3 H OAc I, 1-Acetoxy-2-methylcarbapenam-3-carboxylic Acid]: the MIC in the test with Serratia marcescens, in the test on Staphylococcus aureus [1] (setting [8]), with Citrobacter diversus, in the test with Proteus morgani, with Escherichia coli [5] (brain heart infusion broth) and in the test with Klebsiella pneumoniae was > 200 µg/mL in each case. Besides, the MIC was > 200 µg/mL in the test with Pseudomonas aeruginosa, > 200 µg/mL in test [6] (brain heart infusion broth), > 200 µg/mL in the test with Enterobacter cloacae and > 2000 µg/mL in test [7] (brain heart infusion broth). Moreover, the zone of inhibition at 25 µg/disc in test [2] is 0 mm; in the test on Staphylococcus aureus [4] it was 0 mm; with Bacillus subtilis it was 12 mm.
Consider `CC1C(=O)C2C(NC(=O)COc3ccccc3)C(=O)N2C1C(=O)OCOC(=O)C(C)(C)C` (stereo not drawn) [PMA H POM CH3 O I, Pivaloyloxymethyl 2-Methyl-1-oxo-6-(2-phenoxyacetamido)carbapenam-3-carboxylate], for which the MIC in the test on Serratia marcescens, in the test on Citrobacter diversus, with Proteus morgani, with Escherichia coli [5] (brain heart infusion broth), in the test on Klebsiella pneumoniae and in the test with Pseudomonas aeruginosa was > 200 µg/mL throughout. The MIC (in test [6] (brain heart infusion broth); with Enterobacter cloacae; in test [7] (brain heart infusion broth)) was > 200 µg/mL in each case. Besides, the zone of inhibition at 25 µg/disc in test [2] amounted to 12 mm; in the test with Micrococcus luteus (Micrococcus luteus), 15 mm; with Escherichia coli [3], 0 mm; with Bacillus subtilis, 21 mm.
Regarding `CC1=C(C(=O)[O-])N2C(=O)C(C(C)O)C2C1O.[Na+]` (stereo not drawn) [HET H H CH3 H OH I], the “Minimum Inhibitory Concentration” value in the test on Serratia marcescens was determined as 50 µg/mL; in the test with Staphylococcus aureus [1] (brain heart infusion broth), 1.56 µg/mL; in the test on Proteus morgani it was 25 µg/mL; with Escherichia coli [5] (brain heart infusion broth), 6.25 µg/mL; in the test with Klebsiella pneumoniae, 50 µg/mL; in the test with Pseudomonas aeruginosa it was 200 µg/mL. In addition, the entries for the “Minimum Inhibitory Concentration” value (in test [6] (brain heart infusion broth); in the test on Enterobacter cloacae; in test [7] (brain heart infusion broth)) were 12.5 µg/mL, 25 µg/mL and 3.12 µg/mL, respectively. The “Zone of Inhibition” value in the test with Micrococcus luteus was 39 mm; with Escherichia coli [3], 23 mm; in the test on Staphylococcus aureus [4], 29 mm; with Bacillus subtilis, 29 mm.
